Active and inactive are the calls of the source.
Tests used:
[1] = molecular target: T1, Zinc finger protein mex-5 (Caenorhabditis elegans, UniProt Q9XUB2); test: potency of MEX-5 RNA-binding blockers – biochemical, C. elegans, fluorescence polarization, dose response (AID 1960)
T1 sequence (Q9XUB2 whole entry): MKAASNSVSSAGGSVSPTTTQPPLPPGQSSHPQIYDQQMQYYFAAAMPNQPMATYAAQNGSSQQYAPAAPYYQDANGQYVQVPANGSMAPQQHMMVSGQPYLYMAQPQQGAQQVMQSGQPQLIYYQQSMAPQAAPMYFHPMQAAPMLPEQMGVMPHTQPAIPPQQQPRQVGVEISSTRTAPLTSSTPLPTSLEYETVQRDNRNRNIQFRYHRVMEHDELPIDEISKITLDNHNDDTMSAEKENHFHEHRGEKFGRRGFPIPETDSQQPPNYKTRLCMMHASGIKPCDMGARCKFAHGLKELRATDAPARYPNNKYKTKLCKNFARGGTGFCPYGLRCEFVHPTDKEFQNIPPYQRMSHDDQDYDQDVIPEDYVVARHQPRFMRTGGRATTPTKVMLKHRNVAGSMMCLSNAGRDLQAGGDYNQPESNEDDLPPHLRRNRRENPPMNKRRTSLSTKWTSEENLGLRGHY

[2] = molecular target: T2, RNA-binding protein pos-1 (Caenorhabditis elegans, UniProt G5EF15); test: disruptors of C. elegans POS-1 RNA interaction – biochemical, fluorescence polarization, dose response (AID 1964);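 further: purified POS-1 fused to maltose binding protein made in E. coli; potency of compounds blocking POS-1 binding to fluorescent RNA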
T2 sequence (G5EF15 whole entry): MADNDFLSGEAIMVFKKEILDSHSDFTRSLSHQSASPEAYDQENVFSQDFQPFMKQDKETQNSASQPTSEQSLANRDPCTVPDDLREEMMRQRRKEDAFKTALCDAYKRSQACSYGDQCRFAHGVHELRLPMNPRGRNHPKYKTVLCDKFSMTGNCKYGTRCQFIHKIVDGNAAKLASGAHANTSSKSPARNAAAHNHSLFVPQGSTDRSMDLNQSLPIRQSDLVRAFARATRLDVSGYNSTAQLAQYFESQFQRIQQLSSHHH

[3] = molecular target: T3, Carboxy-terminal domain RNA polymerase II polypeptide A small phosphatase 1 (Homo sapiens, UniProt Q9GZU7); test: CTDSP1 inhibitors, concentration-response, biochemical, absorbance readout, ultra-high-throughput screen actives (AID 540297); type: functional
T3 sequence (Q9GZU7 whole entry): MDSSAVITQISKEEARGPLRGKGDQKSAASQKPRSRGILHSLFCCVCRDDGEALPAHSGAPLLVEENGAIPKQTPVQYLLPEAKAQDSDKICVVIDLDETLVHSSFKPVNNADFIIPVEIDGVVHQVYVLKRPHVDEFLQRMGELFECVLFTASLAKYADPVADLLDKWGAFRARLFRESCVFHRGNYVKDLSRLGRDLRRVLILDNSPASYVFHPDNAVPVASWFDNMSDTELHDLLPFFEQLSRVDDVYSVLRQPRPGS

Genome polyprotein = Genome polyprotein (dengue virus type 2, UniProt P29990); test: flavivirus cap methylation enzyme inhibition – biochemical, confirmation dose response, primary screen (AID 588689); type: functional
[4] = Luminescence Cell-Based Dose Confirmation HTS to Identify Inhibitors of Platelet Dense Granule Release. [Related pubchem assays: 1663 (Primary HTS), 1678 (Summary of Project)]; type: functional
[5] = molecular target: Luciferin 4-monooxygenase (Photinus pyralis, UniProt P08659); test: inhibition of purified Photinus pyralis luciferase – biochemical, luminescence, dose response (AID 1891)
[6] = molecular target: Heat shock protein HSP 90-alpha (Homo sapiens, UniProt P07900); type: functional, organism-based
[7] = Luminescence Cell-Based Dose Retest to Confirm Inhibitors of Cancer Stem Cells. [Related pubchem assays (depositor defined):AID2717, AID2721]; type: functional; conditions: Homo sapiens
Streptokinase A = molecular target: T4, Streptokinase A (Streptococcus pyogenes serotype M1, UniProt P10520); test: viability-normalized secreted streptokinase activity reduction – plasminogen activation absorbance, OD405, dose response (AID 1914); type: functional, Streptococcus pyogenes M1 GAS;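 further: secreted streptokinase activity via plasminogen activation per viability signal from cell pellet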
T4 sequence (P10520 whole entry): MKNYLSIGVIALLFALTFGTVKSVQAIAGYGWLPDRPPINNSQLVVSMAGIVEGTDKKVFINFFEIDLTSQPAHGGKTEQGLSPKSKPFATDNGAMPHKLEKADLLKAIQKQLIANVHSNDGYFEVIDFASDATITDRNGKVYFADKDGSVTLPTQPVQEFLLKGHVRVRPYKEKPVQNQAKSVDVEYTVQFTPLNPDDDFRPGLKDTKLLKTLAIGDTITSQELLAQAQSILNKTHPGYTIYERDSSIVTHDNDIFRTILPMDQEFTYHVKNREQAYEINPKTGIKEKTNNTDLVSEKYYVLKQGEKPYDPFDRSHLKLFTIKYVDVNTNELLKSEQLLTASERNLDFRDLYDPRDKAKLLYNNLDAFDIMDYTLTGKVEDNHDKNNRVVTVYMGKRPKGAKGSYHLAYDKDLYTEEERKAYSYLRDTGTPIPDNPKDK

[8] = test system: Streptococcus sp. 'group A'; test: Streptococcus pyogenes SK(-)GAS viability under kanamycin – luminescence, BacTiterGlo, confirmation, counter-screen for streptokinase expression inhibitor project, dose response (AID 1900); type: functional, organism-based
Protein RecA = molecular target: T5, Protein RecA (Mycobacterium tuberculosis, UniProt P9WHJ3); test: Fluorescence Cell-Free Homogeneous Dose Retest to Identify Inhibitors of RecA-Intein Splicing Activity. [Related pubchem assays (depositor defined):AID2097, AID2223, AID489010, AID492950]; type: functional
T5 sequence (P9WHJ3 whole entry): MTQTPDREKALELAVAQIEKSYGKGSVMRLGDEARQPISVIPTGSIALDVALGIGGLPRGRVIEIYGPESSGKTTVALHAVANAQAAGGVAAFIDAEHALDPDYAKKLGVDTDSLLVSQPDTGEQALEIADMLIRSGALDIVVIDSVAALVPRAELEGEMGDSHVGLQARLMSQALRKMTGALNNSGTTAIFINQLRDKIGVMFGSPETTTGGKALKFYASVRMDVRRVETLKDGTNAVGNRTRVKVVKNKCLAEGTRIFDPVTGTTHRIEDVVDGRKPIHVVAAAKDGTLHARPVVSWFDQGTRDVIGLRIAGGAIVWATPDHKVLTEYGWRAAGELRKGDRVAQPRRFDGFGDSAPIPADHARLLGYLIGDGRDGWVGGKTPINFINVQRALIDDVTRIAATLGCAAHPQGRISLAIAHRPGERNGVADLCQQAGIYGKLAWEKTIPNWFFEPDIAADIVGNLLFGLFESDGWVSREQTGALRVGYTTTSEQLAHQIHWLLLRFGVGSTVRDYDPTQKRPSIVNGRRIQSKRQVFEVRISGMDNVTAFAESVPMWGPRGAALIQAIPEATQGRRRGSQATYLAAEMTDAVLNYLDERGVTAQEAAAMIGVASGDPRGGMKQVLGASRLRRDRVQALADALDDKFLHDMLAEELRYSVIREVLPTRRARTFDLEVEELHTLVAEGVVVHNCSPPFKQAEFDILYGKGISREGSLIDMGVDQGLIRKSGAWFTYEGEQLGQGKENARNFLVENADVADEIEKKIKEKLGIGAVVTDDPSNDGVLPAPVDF

[9] = viability of uninfected HEp-2 cells – cell-based, HTS, cytotoxicity control for RSV inhibitor project, dose response (AID 2410); type: functional; conditions: human respiratory syncytial virus
Streptococcus = test: GAS UMAA2166 growth inhibition – luminescence, BacTiterGlo, counter-screen for streptokinase expression inhibitor project, dose response (AID 1915); type: functional, organism-based; conditions: read-out: EC50;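 further: potency for reduction of bacterial viability or growth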
P388/ADR = test: cells; type: functional; conditions: Mus musculus
SN12K1 = test: cells; type: functional; conditions: Homo sapiens
[10] = molecular target: T6, Microphthalmia-associated transcription factor (Homo sapiens, UniProt O75030); test: reducers of TRPM1 reporter luminescence, concentration series – cell-based, SK-MEL-5, cherry-picked, set 3, MITF inhibitor project, dose response (AID 493073); type: functional;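 further: SK-MEL-5 melanoma cells with luciferase driven by the MITF target TRPM1 promoter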
T6 sequence (O75030 whole entry): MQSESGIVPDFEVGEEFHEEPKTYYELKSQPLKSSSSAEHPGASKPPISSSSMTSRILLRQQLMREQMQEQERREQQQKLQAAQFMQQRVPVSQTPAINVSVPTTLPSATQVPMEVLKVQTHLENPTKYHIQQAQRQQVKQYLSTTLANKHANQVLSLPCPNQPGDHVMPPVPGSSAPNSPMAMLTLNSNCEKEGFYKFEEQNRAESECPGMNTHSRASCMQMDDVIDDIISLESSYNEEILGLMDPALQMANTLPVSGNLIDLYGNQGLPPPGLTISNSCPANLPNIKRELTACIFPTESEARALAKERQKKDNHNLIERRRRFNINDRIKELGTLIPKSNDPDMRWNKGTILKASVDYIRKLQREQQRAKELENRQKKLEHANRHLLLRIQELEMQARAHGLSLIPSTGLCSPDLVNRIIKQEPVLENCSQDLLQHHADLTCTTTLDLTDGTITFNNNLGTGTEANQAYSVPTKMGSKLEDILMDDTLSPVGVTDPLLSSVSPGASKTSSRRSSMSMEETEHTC

Chain of Luciferin 4-monooxygenase (P08659 whole entry): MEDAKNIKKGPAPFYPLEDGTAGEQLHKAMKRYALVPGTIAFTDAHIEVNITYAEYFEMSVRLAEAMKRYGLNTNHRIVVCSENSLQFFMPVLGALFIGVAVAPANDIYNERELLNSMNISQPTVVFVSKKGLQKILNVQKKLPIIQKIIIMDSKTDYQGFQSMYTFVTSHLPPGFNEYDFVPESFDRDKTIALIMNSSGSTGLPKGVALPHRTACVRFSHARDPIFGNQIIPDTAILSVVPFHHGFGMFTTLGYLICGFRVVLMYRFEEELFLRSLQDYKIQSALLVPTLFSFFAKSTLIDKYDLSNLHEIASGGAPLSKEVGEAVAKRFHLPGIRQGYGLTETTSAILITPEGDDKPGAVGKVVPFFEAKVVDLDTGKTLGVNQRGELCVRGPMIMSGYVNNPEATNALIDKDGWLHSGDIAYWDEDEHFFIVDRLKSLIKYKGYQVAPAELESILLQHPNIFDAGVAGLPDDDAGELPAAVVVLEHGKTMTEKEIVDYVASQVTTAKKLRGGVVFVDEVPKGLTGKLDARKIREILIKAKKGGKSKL
Chain of Genome polyprotein (P29990 2492-3391 limits assumed): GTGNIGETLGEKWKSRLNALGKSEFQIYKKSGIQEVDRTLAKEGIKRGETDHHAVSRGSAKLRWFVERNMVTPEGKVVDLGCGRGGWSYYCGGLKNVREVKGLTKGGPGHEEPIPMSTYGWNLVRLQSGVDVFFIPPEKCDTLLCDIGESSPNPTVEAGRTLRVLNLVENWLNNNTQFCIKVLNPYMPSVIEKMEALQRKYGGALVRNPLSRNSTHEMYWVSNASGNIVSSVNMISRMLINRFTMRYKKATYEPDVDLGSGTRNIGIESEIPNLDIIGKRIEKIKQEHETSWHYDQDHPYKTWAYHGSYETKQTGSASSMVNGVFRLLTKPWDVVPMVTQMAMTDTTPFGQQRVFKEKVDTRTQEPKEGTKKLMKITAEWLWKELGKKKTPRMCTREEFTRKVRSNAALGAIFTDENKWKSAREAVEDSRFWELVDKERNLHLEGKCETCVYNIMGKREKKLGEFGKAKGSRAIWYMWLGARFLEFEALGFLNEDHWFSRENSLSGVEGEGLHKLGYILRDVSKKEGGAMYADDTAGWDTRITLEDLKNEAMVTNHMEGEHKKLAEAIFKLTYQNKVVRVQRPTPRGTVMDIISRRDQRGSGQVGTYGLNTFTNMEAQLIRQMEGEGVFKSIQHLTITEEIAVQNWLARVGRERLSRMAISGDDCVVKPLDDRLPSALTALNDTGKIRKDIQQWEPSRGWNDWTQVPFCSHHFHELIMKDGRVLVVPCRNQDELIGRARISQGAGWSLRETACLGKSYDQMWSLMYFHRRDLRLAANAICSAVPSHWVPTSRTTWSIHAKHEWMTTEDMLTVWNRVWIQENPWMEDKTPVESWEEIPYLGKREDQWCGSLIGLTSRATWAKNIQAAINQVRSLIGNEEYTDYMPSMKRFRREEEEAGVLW

Compound: CN1C(=O)C(=Cc2ccccc2OS(=O)(=O)c2ccccc2)C(=O)N(C)C1=O
- EC50 [1]: > 300 µM (not active)
- EC50 [2]: > 300 µM (not active)

Compound: CC(=O)Nc1ccc(NC(=O)CSc2nc(N)c(NC(=O)c3ccccc3F)c(=O)[nH]2)cc1
- IC50 [3]: 11.9 µM (active)

Compound: O=C1NC(=O)N(c2ccc(F)cc2)C(=O)/C1=C/Nc1ccccc1N1CCCC1
- EC50 [1]: 103 µM (active)
- EC50 [2]: 76.7 µM (active)

Compound: CC(C)OP(=O)(OC(C)C)C1(NS(=O)(=O)c2ccc(Cl)cc2)C=C(Cl)C(=O)C(Cl)=C1
- IC50 (Genome polyprotein): 99.3 µM (active)

Compound: COc1ccc(/C=C(\C#N)C(=O)Nc2ccc3[nH]c(O)nc3c2)cc1
- IC50 [3]: 3.26 µM (active)

Compound: Cc1cc(C)n(Cc2ccc(F)cc2)c(=O)c1C#N
- EC50 [4]: 15.7 µM (active)
- EC50 [5]: > 112 µM (not active)

Compound: O=C(/C=C/c1ccccc1[N+](=O)[O-])c1ccccc1Br
- AC50 [6]: 4.37 µM (active)
- AC50 [7]: 7.14 µM (active)

Compound: COC(=O)C(C#N)c1nc2ccccc2nc1N1CCN(Cc2ccc3c(c2)OCO3)CC1 (centres undefined)
- EC50 [4]: > 112 µM (not active)
- EC50 [5]: > 112 µM (not active)

Compound: CCN1CCN(C(=O)c2ccc3c(=O)n(Cc4ccccc4OC)c(=S)[nH]c3c2)CC1
- EC50 [1]: > 300 µM (not active)
- EC50 [2]: > 300 µM (not active)

Compound: CN1CCN(C(=O)c2cc(COc3c(F)cccc3F)on2)CC1c1ccccc1 (centres undefined)
- AC50 [6]: 0.566 µM (active)

Compound: CC1CCN(C(=O)C2CCN(CC(C)c3ccccc3)CC2)CC1 (centres undefined)
- EC50 [4]: > 112 µM (not active)
- EC50 [5]: > 112 µM (not active)

Compound: Fc1cc(F)cc(-c2c(-c3ccccc3)ncc3ccc(F)cc23)c1
- IC50 [3]: 8.88 µM (active)

Compound: COc1cccc(NC(=O)c2cccs2)c1
- EC50 [4]: > 112 µM (not active)
- EC50 [5]: > 112 µM (not active)

Compound: COc1cccc(NC(=O)C(=O)c2cn(CC(=O)N3CCOCC3)c3ccccc23)c1
- EC50 [1]: > 300 µM (not active)
- EC50 [2]: > 300 µM (not active)

Compound: Cc1ccc(N2C(=O)C3C4C=CC(CN=C(S)N5CCN(c6cccc(C)c6)C(C)C5)(O4)C3C2=O)cc1 (centres undefined)
- AC50 [6]: 8.5 µM (active)

Compound: O=C(/C=C/c1ccco1)NCCCN1CCN(CCCNC(=O)/C=C/c2ccco2)CC1
- EC50 [4]: > 112 µM (not active)
- EC50 [5]: > 112 µM (not active)

Compound: O=C(Cn1cc(/C=N/NC(=O)c2cccc(C(F)(F)F)c2)c2ccccc21)Nc1ccc(F)cc1
- IC50 [3]: 4.23 µM (active)

Compound: C=CCn1c(N)c(C(=O)Nc2cccc(C)c2)c2nc3ccccc3nc21
- EC50 (Streptokinase A): > 150 µM (not active)
- EC50 [8]: 2.97 µM (active)
- EC50 (Protein RecA): 13.3 µM (active)
- CC50 [9]: 11.4 µM (active)
- EC50 (Streptococcus): 8.54 µM (active)

Compound: CCOC(=O)C1CCCN(C2CC(=O)N(c3cccc(C(F)(F)F)c3)C2=O)C1 (centres undefined)
- AC50 [6]: 7.53 µM (active)

Compound: COCCN(C(=O)c1cc(-c2ccco2)nc2ccccc12)c1c(N)n(Cc2ccccc2)c(=O)[nH]c1=O
- IC50 [3]: 6.59 µM (active)

Compound: Cc1ccccc1NC(=O)/C(C#N)=C\c1cc(C)n(-c2ccc(C(=O)O)cc2)c1C
- EC50 [1]: > 300 µM (not active)
- EC50 [2]: > 300 µM (not active)

Compound: CN(C)C(=O)COC(=O)c1ccc(S(=O)(=O)NCc2ccco2)cc1
- IC50 [3]: 6.65 µM (active)

Compound: Nc1cc2[nH]cnc2c(=O)[nH]1 [DEZAGUANINE]
- GI50 (P388/ADR): 10.2 µM (inactive)
- GI50 (SN12K1): 13.8 µM (inactive)

Compound: O=C(c1ccc([N+](=O)[O-])s1)N1CCCc2ccccc21
- AC50 [10]: 11.2 µM (active)

Compound: CCOC(=O)/C(C#N)=C/c1cc2ccccc2nc1N1CCCCC1
- EC50 [1]: 104 µM (active)
- EC50 [2]: > 300 µM (not active)

Compound: Cc1nn(C)c(Cl)c1CN1CCN(C2CCCCC2)C(CCO)C1 (centres undefined)
- EC50 [4]: > 112 µM (not active)
- EC50 [5]: > 112 µM (not active)

— ChEMBL document CHEMBL1201862, “PubChem BioAssay data set” (2004)
